Measurements: patent EP0585371B1, “AROMATIC OLIGOMERIC COMPOUNDS USEFUL AS MIMICS OF BIOACTIVE MACROMOLECULES” (RHONE-POULENC RORER INTERNATIONAL (HOLDINGS) INC., priority 1991, dated 1992)

Tests used:
[1] = target: T1, ESb mouse lymphoma heparanase (Mus musculus, UniProt Q6YGZ1); experiment: Inhibition of heparanase activity (degradation of labeled ECM heparan sulfate); format: biochemical; details: 24 hours incubation with labeled ECM
T1 construct: endogenous in cells; host or cells: ESb mouse lymphoma cells
T1 sequence (Q6YGZ1 28-535): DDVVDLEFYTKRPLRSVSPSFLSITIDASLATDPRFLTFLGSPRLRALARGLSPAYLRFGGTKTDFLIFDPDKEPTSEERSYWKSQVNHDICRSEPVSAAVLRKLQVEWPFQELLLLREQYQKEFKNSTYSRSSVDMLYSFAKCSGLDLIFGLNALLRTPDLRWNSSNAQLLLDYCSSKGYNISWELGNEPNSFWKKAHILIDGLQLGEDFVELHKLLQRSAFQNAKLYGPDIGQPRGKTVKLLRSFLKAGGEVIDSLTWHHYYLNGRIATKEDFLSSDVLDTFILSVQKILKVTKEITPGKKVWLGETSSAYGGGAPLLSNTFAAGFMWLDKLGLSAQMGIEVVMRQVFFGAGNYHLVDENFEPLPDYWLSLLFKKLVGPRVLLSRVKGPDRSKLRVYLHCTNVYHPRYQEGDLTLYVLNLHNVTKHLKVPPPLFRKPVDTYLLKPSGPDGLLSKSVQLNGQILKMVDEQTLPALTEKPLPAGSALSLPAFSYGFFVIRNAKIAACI
Experimental: Heparanase is an endoglucuronidase capable of degrading […] (HS) at specific intrachain sites.
The ability of compounds of the present invention to inhibit lymphomacell derived heparanase is tested in the assay system described by Vlodavsky et al., Cancer Research 43, 2704-2711 (1983). […] labeled ECM is incubated for 24 hours with ESb mouse lymphoma heparanase in the presence of various concentrations of the oligomers tested. Degradation of the HS is followed by gel filtration of the supematants. Heparanase activity is expressed as the total amount of labeled low-molecular-weight fragments released from the EMC substrate.

[2] = tested on: Vascular smooth muscle cells (VSMC); experiment: Smooth Muscle Cell DNA Synthesis Assay (3H-thymidine incorporation in response to PDGF); format: cell-based, swine; details: inhibition of incorporation of 3H-thymidine in response to PDGF (9 ng/ml)
Experimental: Vascular smooth muscle cells (VSMC) are isolated from swine coronaries obtained from swine hearts (Hatfield Meat Packing, Hatfield, PA) by enzyme dissociation as described by Gunther, et al., in J. Cell. Biol. 92, 289 (1982). Hyaluronidase (0.5 mg/ml) is added to facilitate dispersal. Cells are maintained in Earle's modified minimal essential medium (EMEM) with D-valine substituted for L-valine, supplemented with Hepes (10 mM), fetal bovine serum (FBS) (10%), penicillin (100 U/ml) and streptomycin ( 100 µg/ml).
The VSMC (passage 2) are plated at a density of 3 x 10^4 /cm2 (1x10^4 cells/well of 96 well tray) and after 48 hours of normal growth are arrested by replacement of above media with serum-free media for 48 hours consisting of: EMEM: Hams F12 (1:1), insulin, 5 µg/ml; transferrin, 35 µg/ml; selenite, 5 ng/ml; antibiotics and buffer (as above). The oligomer of the present invention to be tested (.01-10 µM) is added 2 hours prior to addition of porcine platelet derived growth factor (Research and Diagonostics, Minneapolis, MN), or FBS,in fresh serum-free media. Twenty-four hours later the oligomers are again added preceding addition of growth factors by 2 hours. […]
The VSMC are pulsed (5 hours) with ^3H-thymidine (Amersham, Arlington Heights, IL) (1 µCi/well of a 96 well plate; 42 Ci/mmole) added 15-18 hours after the last dose of growth factor. DNA synthesis is determined in NaOH extraction of ethanol/ether fixed cells as reported by Nemecek, et al., PNAS 83, 674 (1986). The cells are washed with phosphate bufferred saline (200 µl/well of 96-well tray. The cells are incubated with trichloroacetic acid (TCA) (10%, 200 ul) for 5 minutes to remove cytoplasmic label. After a rapid wash with cold 10% TCA, cells are fixed with ethanol/ether (2:1, 200 µl/well 5 min) and dried. The labeled DNA is extracted with 0.5 N NaOH (200 µl/well 30 min incubation, room temperature). The extracted DNA is neutralized (0.5 N HCI) and counted by liquid scintillation.
Statistical evaluation is as reported by Bilder, et al., Am. […] IC50 values are calculated by linear regression (RPL of RS1) from % inhibition of a minimum of 3 log fold dilutions of oligomers in the presence of PDGF (9 ng/ml) which give 70-80% of a maximal PDGF response. […] Percent inhibition is calculated by comparing the effect of PDGF alone (vehicle treated cultures + PDGF minus vehicle treated cultures without PDGF) to the effect of oligomers (oligomer + PDGF minus oligomer alone) and divided by the effect of PDGF times 100. i.e., = % inhibition = ((ΔVehicle + PDGF) - (Δoligomer + PDGF)/(Δvehicle + PDGF)) x 100.

[3] = tested on: human fixed thrombin activated platelets; experiment: Platelet aggregation inhibition (fibrinogen-induced); format: cell-based; details: human fibrinogen added
Experimental: The method for measuring platelet aggregation inhibition is essentially that of Ruggeri, et al., Proc. Natl. Acad. Sci. USA, 83, 5708-5712 (1986), using formalin-fixed platelets as prepared by Plow, et al., Proc. Natl. Acad. Sci. USA, 79, 3711-3715 (1982). A given amount of the compound of the present invention or other compound to be tested (10 to 100 µl of a 1 mg/ml solution) is incubated at 37°C with 400 µl of human fixed thrombin activated platelets for 2 minutes. 12.5 µl of human fibrinogen solution is added and aggregation is monitored using a platelet aggregation profiler (Model PAP-4). Controls consist of fibrinogen added to incubated platelets and the resulting aggregation is considered as 100%. Percent inhibition in the presence of a given concentration of test compound versus concentration of the compound is plotted and the concentration required to give 50% inhibition (IC50) is determined.

normal pooled plasma = experiment: Anticoagulation activity, Activated Partial Thromboplastin Time (APTT) test; details: concentration required to double clotting time
Experimental: The following test measures anticoagulant activity of the oligomers of the present invention and utilizes the Activated Partial Thromboplastin Time (APTT) test, with the following procedures.
To an assay cuvette is added 100 µl of normal pooled plasma (George King Biomedical Inc., Kansas) and […] of a solution containing the test compound in aqueous 50 mM Tris hydrochloride at pH 7.5 (0.2 mg of sample in one ml buffer). The sample is placed in a MLA coagulation timer which automatically maintains the sample at 37°C for 2.5 minutes, 100 µl of actin activated cephaloplastin reagent is injected, kept 5 minutes, 100 µl of 35 mM CaCI is injected, and clot formation is determined photometrically and the clotting time recorded. Each example is examined at a variety of concentrations, generally from about .025 mg/ml to about 1 mg/ml, and the clotting times are graphed as a function of concentration. From the graphic results, the concentration required to double clotting time (ICDCT) is calculated by linear interpolation.

% Inhibition of Heparanase Activity (5µg/ml) [1]: 68%
IC50 [2]: 0.04 µM
Platelet Aggregation IC50 [3]: 250 µg/mL
SMILES: Cc1cc(O)c(Cc2cc(O)c(Cc3cc(O)c(Cc4cc(O)c(Cc5cc(O)c(Cc6cc(O)c(Cc7cc(O)c(Cc8cc(O)c(Cc9cc(O)c(Cc%10cc(O)c(Cc%11cc(O)c(Cc%12cc(O)c(Cc%13cc(O)c(Cc%14cc(O)c(Cc%15cc(O)c(Cc%16cc(O)ccc%16CCC(=O)O)cc%15CCC(=O)O)cc%14CCC(=O)O)cc%13CCC(=O)O)cc%12CCC(=O)O)cc%11CCC(=O)O)cc%10CCC(=O)O)cc9CCC(=O)O)cc8CCC(=O)O)cc7CCC(=O)O)cc6CCC(=O)O)cc5CCC(=O)O)cc4CCC(=O)O)cc3CCC(=O)O)cc2CCC(=O)O)cc1CCC(=O)O [Ex 2, Step 26]
APTT ICDCT (normal pooled plasma): 35 µg/mL
